Laboratory results as given in US20250144094A1 (Erasca, Inc., priority 2021, published 2025).
pIC50: −log10 of the molar value.

Key:
[1] = target: T1, Recombinant human ULK1 (1-649) (Homo sapiens (Human), UniProt O75385); experiment: ULK1 ADP Glo kinase activity assay (MBP substrate); settings: 25° C., 40 minutes, read-out: ULK1 biochemical IC50
Protocol: Recombinant human ULK1 (1-649) protein expressed in Sf9 insect cells was obtained from SignalChem (Vancouver, BC), catalog #U01-11G. Active kinase was purified via N-terminal GST tag to >85% purity.
ADP GLO Kinase Assay Reagents were obtained from Promega Corp (Madison, WI), catalog #V9104.
MBP (myelin basic protein) substrate, bovine, purified, was obtained from Sigma (St. Louis, MO), catalog #M1891.
ULK1 inhibitor potency was determined using the luminescent ADP Glo Kinase Assay (Promega), a universal ADP detection system that measures kinase activity by quantifying the amount of ADP produced during a kinase reaction. ULK1 kinase reactions are performed in a standard 96-well microplate (20 uL reaction volume) at 25° C. for 40 minutes in the presence or absence of the test compound (12-point dilution series starting at 10 uM). Addition of MBP substrate and ATP initiates the kinase reaction.
The standard ADP Glo assay is performed in two steps. In step one, following the kinase reaction, an equal volume of ADP-Glo™ Reagent (20 uL) is added to terminate the kinase reaction and deplete the remaining ATP. In the second step, the Kinase Detection Reagent (10 uL) is added to simultaneously convert ADP to ATP and allow the newly synthesized ATP to be measured using a luciferase/luciferin reaction. Step two of the ADP Glo assay is performed in a white 384-well plate (20 uL final volume). Thirty minutes after the addition of the Detection reagent, light generated from the luciferase reaction is measured (1 second exposure) using a microplate compatible luminometer (CLARIOstar, BMG Labtech).
Inhibition of ULK1 kinase activity is determined for each test compound by comparison to DMSO only control wells. Inhibitor IC50 was calculated by plotting the change in luminescence after 30 minutes (response) versus inhibitor concentration (in log molar) then applying the four-parameter variable slope curve fit (GraphPad Prism). Inhibition of ULK1 in biochemical assay is found in Table 3.

[2] = target: T1, Recombinant human ULK1 (1-649); experiment: ULK1 ADP Glo kinase activity assay, new method (ULKtide peptide substrate); settings: 25° C., 40 minutes, read-out: ULK1 biochemical IC50
Procedure, shortened: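 GST-tagged human ULK1 (1-649) from Sf9 cells was reacted with ULKtide peptide and ATP for 40 min at 25 °C across 12-point compound dilutions from 10 μM. ADP formed was quantified by ADP-Glo luminescence; IC50 came from four-parameter fits relative to DMSO controls.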

T1 sequence (O75385 1-649): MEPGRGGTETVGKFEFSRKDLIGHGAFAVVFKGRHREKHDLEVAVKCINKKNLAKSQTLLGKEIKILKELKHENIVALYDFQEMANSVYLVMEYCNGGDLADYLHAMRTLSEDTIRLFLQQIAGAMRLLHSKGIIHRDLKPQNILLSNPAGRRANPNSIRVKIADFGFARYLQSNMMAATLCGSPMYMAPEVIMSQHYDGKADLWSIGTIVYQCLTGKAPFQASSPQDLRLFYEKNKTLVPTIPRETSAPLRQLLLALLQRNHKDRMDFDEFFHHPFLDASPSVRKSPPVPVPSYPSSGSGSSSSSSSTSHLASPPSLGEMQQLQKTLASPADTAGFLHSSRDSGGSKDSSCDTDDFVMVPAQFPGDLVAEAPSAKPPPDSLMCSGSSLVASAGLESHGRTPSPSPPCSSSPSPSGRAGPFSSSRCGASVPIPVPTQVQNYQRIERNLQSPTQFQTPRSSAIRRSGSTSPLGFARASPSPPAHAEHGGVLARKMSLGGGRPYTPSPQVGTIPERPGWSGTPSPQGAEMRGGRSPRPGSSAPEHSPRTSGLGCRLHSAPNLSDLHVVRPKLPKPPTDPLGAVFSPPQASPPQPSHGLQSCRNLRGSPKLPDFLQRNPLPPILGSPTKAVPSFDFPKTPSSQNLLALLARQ

| pIC50 [1] | pIC50 [2] | Compound |
| --- | --- | --- |
| ≥ 8.00 |  | CN1CCc2cc(Nc3ncc(C(F)(F)F)c(-c4cc(C(N)=O)cs4)n3)c(C3CC3)cc2C1 [Example 14, 5-(2-((7-cyclopropyl-2-methyl-1,2,3,4-tetrahydroisoquinolin-6-yl)amino)-5-(trifluoromethyl)pyrimidin-4-yl)thiophene-3-carboxamide] |
| 7.30 to 8.00 |  | Nc1csc(-c2nc(Nc3cc4c(cc3Cl)CNCC4)ncc2C(F)(F)F)c1 [Example 15, N-(4-(4-aminothiophen-2-yl)-5-(trifluoromethyl)pyrimidin-2-yl)-7-chloro-1,2,3,4-tetrahydroisoquinolin-6-amine] |
| ≥ 8.00 |  | CS(=O)(=O)Nc1csc(-c2nc(Nc3cc4c(cc3Cl)CNCC4)ncc2C(F)(F)F)c1 [Example 16, N-(5-(2-((7-chloro-1,2,3,4-tetrahydroisoquinolin-6-yl)amino)-5-(trifluoromethyl)pyrimidin-4-yl)thiophen-3-yl)methanesulfonamide] |
| ≥ 8.00 |  | CN1Cc2cc(Cl)c(Nc3ncc(C(F)(F)F)c(-c4cc(C(N)=O)cs4)n3)cc2C1 [Example 17, 5-(2-((6-Chloro-2-methylisoindolin-5-yl)amino)-5-(trifluoromethyl)pyrimidin-4-yl)thiophene-3-carboxamide] |
| 7.30 to 8.00 |  | FC(F)(F)c1cnc(Nc2cc3c(cc2Cl)CNCC3)nc1-c1cc(-c2ncco2)cs1 [Example 18, 7-Chloro-N-(4-(4-(oxazol-2-yl)thiophen-2-yl)-5-(trifluoromethyl)pyrimidin-2-yl)-1,2,3,4-tetrahydroisoquinolin-6-amine] |
| ≥ 8.00 |  | CN1Cc2cc(Nc3ncc(C(F)(F)F)c(-c4cc(C(N)=O)cs4)n3)c(C3CC3)cc2C1 [Example 19, 5-(2-((6-Cyclopropyl-2-methylisoindolin-5-yl)amino)-5-(trifluoromethyl)pyrimidin-4-yl)thiophene-3-carboxamide] |
| 7.30 to 8.00 |  | CCc1cc2c(cc1Nc1ncc(C(F)(F)F)c(-c3cc(C(N)=O)cs3)n1)CN(C)C2 [Example 20, 5-(2-((6-Ethyl-2-methylisoindolin-5-yl)amino)-5-(trifluoromethyl)pyrimidin-4-yl)thiophene-3-carboxamide] |
|  | ≥ 8.30 | CCc1cc(N2CCN(C)[C@@H](CO)C2)ccc1Nc1ncc(C(F)(F)F)c(-c2cc3c(s2)C(=O)N(C2CC2)CCS3(=O)=O)n1 [Example 408, (R)-4-cyclopropyl-7-(2-((2-ethyl-4-(3-(hydroxymethyl)-4-methylpiperazin-1-yl)phenyl)amino)-5-(trifluoromethyl)pyrimidin-4-yl)-3,4-dihydrothieno[2,3-f][1,4]thiazepin-5(2H)-one 1,1-dioxide] |
|  | ≥ 8.30 | CCc1cc(N2CCN(C)[C@@H](CO)C2)ccc1Nc1ncc(C(F)(F)F)c(-c2cc3c(s2)C(=O)N(C2COC2)CCS3(=O)=O)n1 [Example 409, (R)-7-(2-((2-Ethyl-4-(3-(hydroxymethyl)-4-methylpiperazin-1-yl)phenyl)amino)-5-(trifluoromethyl)pyrimidin-4-yl)-4-(oxetan-3-yl)-3,4-dihydrothieno[2,3-f][1,4]thiazepin-5(2H)-one 1,1-dioxide] |

Continued, molecule first:

| Compound | pIC50 [1] | pIC50 [2] |
| --- | --- | --- |
| NC(=O)c1csc(-c2nc(Nc3cc4c(cc3Cl)CNCC4)ncc2C(F)(F)F)c1 [Example 1, 5-(2-((7-chloro-1,2,3,4-tetrahydroisoquinolin-6-yl)amino)-5-(trifluoromethyl)pyrimidin-4-yl)thiophene-3-carboxamide] | ≥ 8.00 |  |
| CN(C)C(=O)c1csc(-c2nc(Nc3cc4c(cc3Cl)CNCC4)ncc2C(F)(F)F)c1 [Example 2, 5-(2-((7-chloro-1,2,3,4-tetrahydroisoquinolin-6-yl)amino)-5-(trifluoromethyl)pyrimidin-4-yl)-N,N-dimethylthiophene-3-carboxamide] | 7.30 to 8.00 |  |
| CN(C)C(=O)c1ccc(-c2nc(Nc3cc4c(cc3Cl)CNCC4)ncc2C(F)(F)F)s1 [Example 3, 5-(2-((7-chloro-1,2,3,4-tetrahydroisoquinolin-6-yl)amino)-5-(trifluoromethyl)pyrimidin-4-yl)-N,N-dimethylthiophene-2-carboxamide] | ≥ 8.00 |  |
| O=C1NCCc2sc(-c3nc(Nc4cc5c(cc4Cl)CNCC5)ncc3C(F)(F)F)cc21 [Example 4, 2-(2-((7-chloro-1,2,3,4-tetrahydroisoquinolin-6-yl)amino)-5-(trifluoromethyl)pyrimidin-4-yl)-6,7-dihydrothieno[3,2-c]pyridin-4(5H)-one] | ≥ 8.00 |  |
| NC(=O)c1csc(-c2nc(Nc3cc4c(cc3Cl)CN(C3CNC3)CC4)ncc2C(F)(F)F)c1 [Example 5, 5-(2-((2-(azetidin-3-yl)-7-chloro-1,2,3,4-tetrahydroisoquinolin-6-yl)amino)-5-(trifluoromethyl)pyrimidin-4-yl)thiophene-3-carboxamide] | ≥ 8.00 |  |
| CNC(=O)c1csc(-c2nc(Nc3cc4c(cc3Cl)CNCC4)ncc2C(F)(F)F)c1 [Example 6, 5-(2-((7-chloro-1,2,3,4-tetrahydroisoquinolin-6-yl)amino)-5-(trifluoromethyl)pyrimidin-4-yl)-N-methylthiophene-3-carboxamide] | 7.00 to 7.30 |  |
| NC(=O)c1csc(-c2nc(Nc3cc4c(cc3Cl)CNC4)ncc2C(F)(F)F)c1 [Example 7, 5-(2-((6-chloroisoindolin-5-yl)amino)-5-(trifluoromethyl)pyrimidin-4-yl)thiophene-3-carboxamide] | ≥ 8.00 |  |
| FC(F)(F)c1cnc(Nc2cc3c(cc2Cl)CNCC3)nc1-c1cc(C2=NCCO2)cs1 [Example 8, 7-chloro-N-(4-(4-(4,5-dihydrooxazol-2-yl)thiophen-2-yl)-5-(trifluoromethyl)pyrimidin-2-yl)-1,2,3,4-tetrahydroisoquinolin-6-amine] | 7.30 to 8.00 |  |
| CCc1cc2c(cc1Nc1ncc(C(F)(F)F)c(-c3cc(C(N)=O)cs3)n1)CCNC2 [Example 9, 5-(2-((7-ethyl-1,2,3,4-tetrahydroisoquinolin-6-yl)amino)-5-(trifluoromethyl)pyrimidin-4-yl)thiophene-3-carboxamide] | ≥ 8.00 |  |
| NC(=O)c1csc(-c2nc(Nc3cc4c(cc3C3CC3)CNCC4)ncc2C(F)(F)F)c1 [Example 10, 5-(2-((7-cyclopropyl-1,2,3,4-tetrahydroisoquinolin-6-yl)amino)-5-(trifluoromethyl)pyrimidin-4-yl)thiophene-3-carboxamide] | ≥ 8.00 |  |
| CN1CC(N2CCc3cc(Nc4ncc(C(F)(F)F)c(-c5cc(C(N)=O)cs5)n4)c(Cl)cc3C2)C1 [Example 11, 5-(2-((7-chloro-2-(1-methylazetidin-3-yl)-1,2,3,4-tetrahydroisoquinolin-6-yl)amino)-5-(trifluoromethyl)pyrimidin-4-yl)thiophene-3-carboxamide] | 7.30 to 8.00 |  |
| CN1CC(N2Cc3cc(Cl)c(Nc4ncc(C(F)(F)F)c(-c5cc(C(N)=O)cs5)n4)cc3C2)C1 [Example 12, 5-(2-((6-chloro-2-(1-methylazetidin-3-yl)isoindolin-5-yl)amino)-5-(trifluoromethyl)pyrimidin-4-yl)thiophene-3-carboxamide] | ≥ 8.00 |  |
| CCc1cc2c(cc1Nc1ncc(C(F)(F)F)c(-c3cc(C(N)=O)cs3)n1)CCN(C)C2 [Example 13, 5-(2-((7-ethyl-2-methyl-1,2,3,4-tetrahydroisoquinolin-6-yl)amino)-5-(trifluoromethyl)pyrimidin-4-yl)thiophene-3-carboxamide] | ≥ 8.00 |  |
